Experimental data from ChEMBL document CHEMBL1201861, “Genomics of Drug Sensitity in Cancer screening data, Wellcome Trust Sanger Institute”.

The compounds below were run on COLO-800 (assay: cells). Details: Homo sapiens, COLO-800.
Type: functional, cell-based, Homo sapiens
Description: SANGER: Inhibition of human COLO-800 cell growth in a cell viability assay.
With `Cc1cc([N+](=O)[O-])ccc1NS(=O)(=O)c1cc(Cl)ccc1Cl` the IC50 was 8.91 µM.

Each compound was assayed on COLO-829 (assay: cells). Details: Homo sapiens, COLO-829.
Type: functional, cell-based, Homo sapiens
Description: SANGER: Inhibition of human COLO-829 cell growth in a cell viability assay.
`Cc1cc([N+](=O)[O-])ccc1NS(=O)(=O)c1cc(Cl)ccc1Cl` showed an IC50 of 0.825 µM.

These compounds were tested on CP66-MEL (assay: cells). Details: Homo sapiens, CP66-MEL.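 Further: growth inhibition of CP66-MEL cells determined in a cell viability assay.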
Type: functional, cell-based, Homo sapiens
Description: SANGER: Inhibition of human CP66-MEL cell growth in a cell viability assay.
Compound `Cc1cc([N+](=O)[O-])ccc1NS(=O)(=O)c1cc(Cl)ccc1Cl` has an IC50 of 0.268 µM.

The compounds below were run on CTV-1 (assay: cells). Details: Homo sapiens, CTV-1.
Type: functional, cell-based, Homo sapiens
Description: SANGER: Inhibition of human CTV-1 cell growth in a cell viability assay.
In the case of `Cc1cc([N+](=O)[O-])ccc1NS(=O)(=O)c1cc(Cl)ccc1Cl`, the IC50 is reported as 5.06 µM.

What follows are compounds tested on DSH1 (assay: cells). Details: Homo sapiens, DSH1.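 Further: growth inhibition of human DSH1 cells, measured with a cell viability readout.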
Type: functional, cell-based, Homo sapiens
Description: SANGER: Inhibition of human DSH1 cell growth in a cell viability assay.
Work on `Cc1cc([N+](=O)[O-])ccc1NS(=O)(=O)c1cc(Cl)ccc1Cl` yielded an IC50 of 0.949 µM.

The compounds below were run on EC-GI-10 (assay: cells). Details: Homo sapiens, EC-GI-10.
Type: functional, cell-based, Homo sapiens
Description: SANGER: Inhibition of human EC-GI-10 cell growth in a cell viability assay.
`Cc1cc([N+](=O)[O-])ccc1NS(=O)(=O)c1cc(Cl)ccc1Cl` was tested, and the IC50 was 11.3 µM.

These compounds were tested on ES1 (assay: cells). Details: Homo sapiens, ES1.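 Further: growth inhibition of ES1 cells, read out with a cell viability assay.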
Type: functional, cell-based, Homo sapiens
Description: SANGER: Inhibition of human ES1 cell growth in a cell viability assay.
In the case of `Cc1cc([N+](=O)[O-])ccc1NS(=O)(=O)c1cc(Cl)ccc1Cl`, the IC50 is reported as 11.4 µM.

The compounds below were run on ES7 (assay: cells). Details: Homo sapiens, ES7.
Type: functional, cell-based, Homo sapiens
Description: SANGER: Inhibition of human ES7 cell growth in a cell viability assay.
Compound `Cc1cc([N+](=O)[O-])ccc1NS(=O)(=O)c1cc(Cl)ccc1Cl` has an IC50 of 11.1 µM.

The compounds below were run on EW-18 (assay: cells). Details: Homo sapiens, EW-18.
Type: functional, cell-based, Homo sapiens
Description: SANGER: Inhibition of human EW-18 cell growth in a cell viability assay.
For `Cc1cc([N+](=O)[O-])ccc1NS(=O)(=O)c1cc(Cl)ccc1Cl`, the IC50 was 9.58 µM.

Each compound was assayed on EOL1 (assay: cells). Details: Homo sapiens, EOL1.
Type: functional, cell-based, Homo sapiens
Description: SANGER: Inhibition of human EoL-1-cell cell growth in a cell viability assay.
`Cc1cc([N+](=O)[O-])ccc1NS(=O)(=O)c1cc(Cl)ccc1Cl` showed an IC50 of 4.95 µM.

The compounds below were run on GB-1 (assay: cells). Details: Homo sapiens, GB-1.
Type: functional, cell-based, Homo sapiens
Description: SANGER: Inhibition of human GB-1 cell growth in a cell viability assay.
Compound `Cc1cc([N+](=O)[O-])ccc1NS(=O)(=O)c1cc(Cl)ccc1Cl` has an IC50 of 2.19 µM.

Each compound was assayed on GT3TKB (assay: cells). Details: Homo sapiens, GT3TKB.
Type: functional, cell-based, Homo sapiens
Description: SANGER: Inhibition of human GT3TKB cell growth in a cell viability assay.
Work on `Cc1cc([N+](=O)[O-])ccc1NS(=O)(=O)c1cc(Cl)ccc1Cl` yielded an IC50 of 2.9 µM.

These compounds were tested on HDLM-2 (assay: cells). Details: Homo sapiens, HDLM-2.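 Further: cell viability assay measuring suppression of HDLM-2 proliferation.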
Type: functional, cell-based, Homo sapiens
Description: SANGER: Inhibition of human HDLM-2 cell growth in a cell viability assay.
Work on `Cc1cc([N+](=O)[O-])ccc1NS(=O)(=O)c1cc(Cl)ccc1Cl` yielded an IC50 of 6.71 µM.

What follows are compounds tested on KLE (assay: cells). Details: Homo sapiens, KLE.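 Further: growth inhibition of human KLE cells, read out with a cell viability assay.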
Type: functional, cell-based, Homo sapiens
Description: SANGER: Inhibition of human KLE cell growth in a cell viability assay.
For `Cc1cc([N+](=O)[O-])ccc1NS(=O)(=O)c1cc(Cl)ccc1Cl`, the IC50 was 6.59 µM.

The compounds below were run on KMOE-2 (assay: cells). Details: Homo sapiens, KMOE-2.
Type: functional, cell-based, Homo sapiens
Description: SANGER: Inhibition of human KMOE-2 cell growth in a cell viability assay.
In the case of `Cc1cc([N+](=O)[O-])ccc1NS(=O)(=O)c1cc(Cl)ccc1Cl`, the IC50 is reported as 3.84 µM.

Each compound was assayed on KNS-81-FD (assay: cells). Details: Homo sapiens, KNS-81-FD.
Type: functional, cell-based, Homo sapiens
Description: SANGER: Inhibition of human KNS-81-FD cell growth in a cell viability assay.
Compound `Cc1cc([N+](=O)[O-])ccc1NS(=O)(=O)c1cc(Cl)ccc1Cl` has an IC50 of 21.2 µM.

Each compound was assayed on LAN-6 (assay: cells). Details: Homo sapiens, LAN-6.
Type: functional, cell-based, Homo sapiens
Description: SANGER: Inhibition of human LAN-6 cell growth in a cell viability assay.
In the case of `Cc1cc([N+](=O)[O-])ccc1NS(=O)(=O)c1cc(Cl)ccc1Cl`, the IC50 is reported as 20.4 µM.

These compounds were tested on LB1047-RCC (assay: cells). Details: Homo sapiens, LB1047-RCC.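 Further: inhibition of cell growth, determined with a cell viability assay.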
Type: functional, cell-based, Homo sapiens
Description: SANGER: Inhibition of human LB1047-RCC cell growth in a cell viability assay.
`Cc1cc([N+](=O)[O-])ccc1NS(=O)(=O)c1cc(Cl)ccc1Cl` was tested, and the IC50 was 6.74 µM.

Each compound was assayed on LS-123 (assay: cells). Details: Homo sapiens, LS-123.
Type: functional, cell-based, Homo sapiens
Description: SANGER: Inhibition of human LS-123 cell growth in a cell viability assay.
Work on `Cc1cc([N+](=O)[O-])ccc1NS(=O)(=O)c1cc(Cl)ccc1Cl` yielded an IC50 of 9.22 µM.

What follows are compounds tested on LXF-289 cell line (assay: cells). Details: Homo sapiens, LXF-289.
Type: functional, cell-based, Homo sapiens
Description: SANGER: Inhibition of human LXF-289 cell growth in a cell viability assay.
With `Cc1cc([N+](=O)[O-])ccc1NS(=O)(=O)c1cc(Cl)ccc1Cl` the IC50 was 5.36 µM.

What follows are compounds tested on MHH-NB-11 (assay: cells). Details: Homo sapiens, MHH-NB-11.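 Further: growth inhibition of human MHH-NB-11 cells, read out by a cell viability assay.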
Type: functional, cell-based, Homo sapiens
Description: SANGER: Inhibition of human MHH-NB-11 cell growth in a cell viability assay.
`Cc1cc([N+](=O)[O-])ccc1NS(=O)(=O)c1cc(Cl)ccc1Cl` showed an IC50 of 20.7 µM.

Each compound was assayed on MHH-PREB-1 (assay: cells). Details: Homo sapiens, MHH-PREB-1.
Type: functional, cell-based, Homo sapiens
Description: SANGER: Inhibition of human MHH-PREB-1 cell growth in a cell viability assay.
With `Cc1cc([N+](=O)[O-])ccc1NS(=O)(=O)c1cc(Cl)ccc1Cl` the IC50 was 5.95 µM.

What follows are compounds tested on ML-2 (assay: cells). Details: Homo sapiens, ML-2.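 Further: growth inhibition of ML-2 cells, measured with a cell viability readout.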
Type: functional, cell-based, Homo sapiens
Description: SANGER: Inhibition of human ML-2 cell growth in a cell viability assay.
With `Cc1cc([N+](=O)[O-])ccc1NS(=O)(=O)c1cc(Cl)ccc1Cl` the IC50 was 7.87 µM.

These compounds were tested on NB69 (assay: cells). Details: Homo sapiens, NB69.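 Further: growth inhibition of NB69 cells, determined by a cell viability assay.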
Type: functional, cell-based, Homo sapiens
Description: SANGER: Inhibition of human NB69 cell growth in a cell viability assay.
`Cc1cc([N+](=O)[O-])ccc1NS(=O)(=O)c1cc(Cl)ccc1Cl` gave an IC50 of 31.3 µM.

These compounds were tested on NCI-H1648 (assay: cells). Details: Homo sapiens, NCI-H1648.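 Further: cell viability assay measuring inhibition of NCI-H1648 cell growth, from the Sanger screening data.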
Type: functional, cell-based, Homo sapiens
Description: SANGER: Inhibition of human NCI-H1648 cell growth in a cell viability assay.
Work on `Cc1cc([N+](=O)[O-])ccc1NS(=O)(=O)c1cc(Cl)ccc1Cl` yielded an IC50 of 2.04 µM.

These compounds were tested on NCI-H510A (assay: cells). Details: Homo sapiens, NCI-H510A.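 Further: growth inhibition of NCI-H510A cells, read out with a cell viability assay.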
Type: functional, cell-based, Homo sapiens
Description: SANGER: Inhibition of human NCI-H510A cell growth in a cell viability assay.
Compound `Cc1cc([N+](=O)[O-])ccc1NS(=O)(=O)c1cc(Cl)ccc1Cl` has an IC50 of 20.2 µM.

These compounds were tested on SNU1 (assay: cells). Details: Homo sapiens, SNU1.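 Further: growth inhibition of human NCI-SNU-1 cells, measured with a cell viability assay.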
Type: functional, cell-based, Homo sapiens
Description: SANGER: Inhibition of human NCI-SNU-1 cell growth in a cell viability assay.
With `Cc1cc([N+](=O)[O-])ccc1NS(=O)(=O)c1cc(Cl)ccc1Cl` the IC50 was 10.8 µM.

What follows are compounds tested on NKM-1 (assay: cells). Details: Homo sapiens, NKM-1.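 Further: growth inhibition of NKM-1 cells, read out with a cell viability assay.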
Type: functional, cell-based, Homo sapiens
Description: SANGER: Inhibition of human NKM-1 cell growth in a cell viability assay.
`Cc1cc([N+](=O)[O-])ccc1NS(=O)(=O)c1cc(Cl)ccc1Cl` showed an IC50 of 10.2 µM.

These compounds were tested on ONS-76 (assay: cells). Details: Homo sapiens, ONS-76.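 Further: growth inhibition of human ONS-76 cells, read out with a cell viability assay.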
Type: functional, cell-based, Homo sapiens
Description: SANGER: Inhibition of human ONS-76 cell growth in a cell viability assay.
`Cc1cc([N+](=O)[O-])ccc1NS(=O)(=O)c1cc(Cl)ccc1Cl` was tested, and the IC50 was 6.44 µM.

The compounds below were run on RPMI-8866 (assay: cells). Details: Homo sapiens, RPMI-8866.
Type: functional, cell-based, Homo sapiens
Description: SANGER: Inhibition of human RPMI-8866 cell growth in a cell viability assay.
In the case of `Cc1cc([N+](=O)[O-])ccc1NS(=O)(=O)c1cc(Cl)ccc1Cl`, the IC50 is reported as 3.32 µM.

Each compound was assayed on SCC-15 (assay: cells). Details: Homo sapiens, SCC-15.
Type: functional, cell-based, Homo sapiens
Description: SANGER: Inhibition of human SCC-15 cell growth in a cell viability assay.
For `Cc1cc([N+](=O)[O-])ccc1NS(=O)(=O)c1cc(Cl)ccc1Cl`, the IC50 was 3.94 µM.

Each compound was assayed on SF-126 (assay: cells). Details: Homo sapiens, SF-126.
Type: functional, cell-based, Homo sapiens
Description: SANGER: Inhibition of human SF126 cell growth in a cell viability assay.
With `Cc1cc([N+](=O)[O-])ccc1NS(=O)(=O)c1cc(Cl)ccc1Cl` the IC50 was 9.88 µM.

These compounds were tested on SK-UT-1 (assay: cells). Details: Homo sapiens, SK-UT-1.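 Further: growth inhibition of SK-UT-1 cells, measured by a cell viability assay.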
Type: functional, cell-based, Homo sapiens
Description: SANGER: Inhibition of human SK-UT-1 cell growth in a cell viability assay.
`Cc1cc([N+](=O)[O-])ccc1NS(=O)(=O)c1cc(Cl)ccc1Cl` gave an IC50 of 1.96 µM.

These compounds were tested on SNB-75 (assay: cells). Details: Homo sapiens, SNB-75.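 Further: cell viability assay measuring growth inhibition of human SNB-75 cells.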
Type: functional, cell-based, Homo sapiens
Description: SANGER: Inhibition of human SNB75 cell growth in a cell viability assay.
In the case of `Cc1cc([N+](=O)[O-])ccc1NS(=O)(=O)c1cc(Cl)ccc1Cl`, the IC50 is reported as over 32 µM.

These compounds were tested on SW872 (assay: cells). Details: Homo sapiens, SW872.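 Further: growth inhibition of SW872 cells, read out by a viability assay.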
Type: functional, cell-based, Homo sapiens
Description: SANGER: Inhibition of human SW872 cell growth in a cell viability assay.
`Cc1cc([N+](=O)[O-])ccc1NS(=O)(=O)c1cc(Cl)ccc1Cl` was tested, and the IC50 was 4.95 µM.

The compounds below were run on SW982 (assay: cells). Details: Homo sapiens, SW982.
Type: functional, cell-based, Homo sapiens
Description: SANGER: Inhibition of human SW982 cell growth in a cell viability assay.
Work on `Cc1cc([N+](=O)[O-])ccc1NS(=O)(=O)c1cc(Cl)ccc1Cl` yielded an IC50 of 9.22 µM.

The compounds below were run on 697 (assay: cells). Details: Homo sapiens.
Type: functional, cell-based, Homo sapiens
Description: SANGER: Inhibition of human 697 cell growth in a cell viability assay.
`Cc1cc([N+](=O)[O-])ccc1NS(=O)(=O)c1cc(Cl)ccc1Cl` showed an IC50 of over 32 µM.

What follows are compounds tested on A253 cell line (assay: cells). Details: Homo sapiens, A253.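 Further: growth inhibition of A253 cells, read out with a cell viability assay.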
Type: functional, cell-based, Homo sapiens
Description: SANGER: Inhibition of human A253 cell growth in a cell viability assay.
With `Cc1cc([N+](=O)[O-])ccc1NS(=O)(=O)c1cc(Cl)ccc1Cl` the IC50 was 5.93 µM.

Each compound was assayed on BB49-HNC (assay: cells). Details: Homo sapiens, BB49-HNC.
Type: functional, cell-based, Homo sapiens
Description: SANGER: Inhibition of human BB49-HNC cell growth in a cell viability assay.
`Cc1cc([N+](=O)[O-])ccc1NS(=O)(=O)c1cc(Cl)ccc1Cl` gave an IC50 of over 32 µM.

These compounds were tested on TE-12 (assay: cells). Details: Homo sapiens, TE-12.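 Further: growth inhibition of TE-12 cells, read out by a cell viability assay.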
Type: functional, cell-based, Homo sapiens
Description: SANGER: Inhibition of human TE-12 cell growth in a cell viability assay.
In the case of `Cc1cc([N+](=O)[O-])ccc1NS(=O)(=O)c1cc(Cl)ccc1Cl`, the IC50 is reported as 2.94 µM.

These compounds were tested on TE-8 (assay: cells). Details: Homo sapiens, TE-8.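 Further: growth inhibition of TE-8 cells, measured with a cell viability readout.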
Type: functional, cell-based, Homo sapiens
Description: SANGER: Inhibition of human TE-8 cell growth in a cell viability assay.
For `Cc1cc([N+](=O)[O-])ccc1NS(=O)(=O)c1cc(Cl)ccc1Cl`, the IC50 was 5.76 µM.

The compounds below were run on TGBC1TKB (assay: cells). Details: Homo sapiens, TGBC1TKB.
Type: functional, cell-based, Homo sapiens
Description: SANGER: Inhibition of human TGBC1TKB cell growth in a cell viability assay.
`Cc1cc([N+](=O)[O-])ccc1NS(=O)(=O)c1cc(Cl)ccc1Cl` showed an IC50 of 8.37 µM.

What follows are compounds tested on TGBC24TKB (assay: cells). Details: Homo sapiens, TGBC24TKB.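 Further: growth inhibition of human TGBC24TKB cells, read out with a cell viability assay.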
Type: functional, cell-based, Homo sapiens
Description: SANGER: Inhibition of human TGBC24TKB cell growth in a cell viability assay.
For `Cc1cc([N+](=O)[O-])ccc1NS(=O)(=O)c1cc(Cl)ccc1Cl`, the IC50 was 5.2 µM.

What follows are compounds tested on U-266 (assay: cells). Details: Homo sapiens, U-266.
Type: functional, cell-based, Homo sapiens
Description: SANGER: Inhibition of human U-266 cell growth in a cell viability assay.
`Cc1cc([N+](=O)[O-])ccc1NS(=O)(=O)c1cc(Cl)ccc1Cl` was tested, and the IC50 was 22.9 µM.

What follows are compounds tested on VA-ES-BJ (assay: cells). Details: Homo sapiens, VA-ES-BJ.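 Further: growth inhibition of the VA-ES-BJ cell line, read out by a cell viability assay.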
Type: functional, cell-based, Homo sapiens
Description: SANGER: Inhibition of human VA-ES-BJ cell growth in a cell viability assay.
`Cc1cc([N+](=O)[O-])ccc1NS(=O)(=O)c1cc(Cl)ccc1Cl` gave an IC50 of 1.23 µM.

Each compound was assayed on no-11 (assay: cells). Details: Homo sapiens.
Type: functional, cell-based, Homo sapiens
Description: SANGER: Inhibition of human no-11 cell growth in a cell viability assay.
`Cc1cc([N+](=O)[O-])ccc1NS(=O)(=O)c1cc(Cl)ccc1Cl` was tested, and the IC50 was 6.74 µM.

These compounds were tested on CCRF-CEM (assay: cells). Details: Homo sapiens, CCRF-CEM.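 Further: inhibition of CCRF-CEM cell growth, measured by a cell viability assay.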
Type: functional, cell-based, Homo sapiens
Description: SANGER: Inhibition of human CCRF-CEM cell growth in a cell viability assay.
`Cc1cc([N+](=O)[O-])ccc1NS(=O)(=O)c1cc(Cl)ccc1Cl` showed an IC50 of 7.88 µM.

The compounds below were run on COLO-668 (assay: cells). Details: Homo sapiens, COLO-668.
Type: functional, cell-based, Homo sapiens
Description: SANGER: Inhibition of human COLO-668 cell growth in a cell viability assay.
With `Cc1cc([N+](=O)[O-])ccc1NS(=O)(=O)c1cc(Cl)ccc1Cl` the IC50 was 4.48 µM.

The compounds below were run on COLO-684 (assay: cells). Details: Homo sapiens, COLO-684.
Type: functional, cell-based, Homo sapiens
Description: SANGER: Inhibition of human COLO-684 cell growth in a cell viability assay.
Compound `Cc1cc([N+](=O)[O-])ccc1NS(=O)(=O)c1cc(Cl)ccc1Cl` has an IC50 of 12.1 µM.
